Measured values as given in PMC7968666, “The pharmacokinetics and drug-drug interactions of ivermectin in Aedes aegypti mosquitoes” (PLoS Pathogens, 2021).
Read-outs that look alike come from different tables or passages of the source.

Legend:
Aedes aegypti mosquitoes [1] = assay: Drug effect on mosquito fecundity (eggs laid after 96 h); format: in vivo; settings: 4 days; IVM 0.1, KCZ 5, RIF 10, RTV 10, PBO 10 μg/ml in blood; 50 mosquitoes
Procedure: The mixtures were rotated at room temperature for 30 min to ensure a uniform drug distribution (Rotator Genie, Scientific Industries, Bohemia, USA). […] Twelve hours later, the tap water was also removed to starve the mosquitoes. […] The mosquitoes were then feeding from blood through the netting and the Parafilm membrane. […] The photoperiod of the climate chamber and the insectary were synchronised. […] The engorged mosquitoes were either directly frozen at -20°C or returned to the climate chamber for certain time periods to assess the PK. […] Blood feeding was done as described above. […] In contrast to the PK experiments, the mosquitoes had unlimited access to water because a moistened oviposition substrate was inserted into the paper cup. Fecundity was defined as the total number of eggs laid after 96 h. […] The filter paper served as the oviposition substrate. The cotton wool was soaked with fresh water and covered by a new filter paper after 48, 72, and 96 h post-treatment. After the assay, the eggs were left to mature for 24 h in the insectary. […] R Foundation for Statistical Computing, http://www.R-project.org, Vienna, Austria). Normality was assessed using the Shapiro-Wilk test. For normally distributed data (mortality, fecundity), group differences were assessed with one-way ANOVA testing, and, where applicable, followed up with Tukey's test. Group differences in fertility (not normally distributed) were evaluated with Kruskal-Wallis one-way analysis of variance, and Wilcoxon rank sum testing as post-hoc.

Aedes aegypti mosquitoes [2] = assay: Drug effect on mosquito fertility (percentage of eggs hatched); format: in vivo; settings: 100 eggs laid 48-96 h post-treatment; IVM 0.1, KCZ 5, RIF 10, RTV 10, PBO 10 μg/ml in blood
Procedure: The mixtures were rotated at room temperature for 30 min to ensure a uniform drug distribution (Rotator Genie, Scientific Industries, Bohemia, USA). […] Twelve hours later, the tap water was also removed to starve the mosquitoes. […] The mosquitoes were then feeding from blood through the netting and the Parafilm membrane. […] The photoperiod of the climate chamber and the insectary were synchronised. […] The engorged mosquitoes were either directly frozen at -20°C or returned to the climate chamber for certain time periods to assess the PK. […] Blood feeding was done as described above. […] In contrast to the PK experiments, the mosquitoes had unlimited access to water because a moistened oviposition substrate was inserted into the paper cup. […] Any hatched larva was counted and transferred to a rearing tray with a plastic pipette. The fertility was calculated as the percentage of eggs hatched. […] R Foundation for Statistical Computing, http://www.R-project.org, Vienna, Austria). Normality was assessed using the Shapiro-Wilk test. For normally distributed data (mortality, fecundity), group differences were assessed with one-way ANOVA testing, and, where applicable, followed up with Tukey's test. Group differences in fertility (not normally distributed) were evaluated with Kruskal-Wallis one-way analysis of variance, and Wilcoxon rank sum testing as post-hoc.

Aedes aegypti mosquitoes [3] = settings: IVM 0.1, KCZ 5, RIF 10, RTV 10, PBO 10 μg/ml in blood, 50 mosquitoes
[4] = Pharmacokinetic and drug-drug interaction studies in blood-fed mosquitoes (concentration-time courses, population PK modelling); settings: for Course / extent of elimination from the mosquitoes: IVM 0.1, KCZ 5, RIF 10, PBO 10 μg/ml in blood, up to 72 h; for Type of elimination kinetics in the mosquito: IVM 0.1, KCZ 5, RIF 10, RTV 10, PBO 10 μg/ml in blood; for Effect of the co-administered CYP modulator on the PK of ivermectin: ivermectin 0.1 μg/ml plus KCZ 5, RIF 10, RTV 10 or PBO 10 μg/ml in blood, 72 h

| Compound | Mosquito fecundity, Batch 1, mg eggs (4 days) (Aedes aegypti mosquitoes [1]) [mg eggs] | Mosquito fecundity, Batch 2, mg eggs (4 days) (Aedes aegypti mosquitoes [1]) [mg eggs] | Mosquito fecundity, Batch 3, mg eggs (4 days) (Aedes aegypti mosquitoes [1]) [mg eggs] | Mosquito fertility, Batch 1, hatching rate (Aedes aegypti mosquitoes [2]) [%] | Mosquito fertility, Batch 2, hatching rate (Aedes aegypti mosquitoes [2]) [%] | Mosquito fertility, Batch 3, hatching rate (Aedes aegypti mosquitoes [2]) [%] | Mosquito survival (%) (Aedes aegypti mosquitoes [3]; 0 days post feeding) | Mosquito survival (%) (Aedes aegypti mosquitoes [3]; 1 day post feeding) | Course / extent of elimination from the mosquitoes [4] | Type of elimination kinetics in the mosquito [4] | Tmax ([4]; female, Aedes aegypti, in vivo) [h] | concentration at 0 h ([4]; female, Aedes aegypti, in vivo, CYP modulator concentration (ng/mg mosquito), Treatment KCZ + IVM (5 µg/ml KCZ, 0.1 µg/ml IVM), Batch 1, 0 h post feeding, single mosquitoes 1-20) [ng/g] | concentration at 72 h ([4]; female, Aedes aegypti, in vivo, CYP modulator concentration (ng/mg mosquito), Treatment KCZ + IVM (5 µg/ml KCZ, 0.1 µg/ml IVM), Batch 1, 72 h post feeding, single mosquitoes 1-20) [ng/g] | Effect of the co-administered CYP modulator on the PK of ivermectin [4] | Effect of the co-administered CYP modulator on the PK of ivermectin ([4]; listed as Ketoconazole) | Share of the dose excreted after 6 h ([4]; ketoconazole 5 μg/ml with ivermectin 0.1 μg/ml in blood) [%] | concentration at 0 h ([4]; female, Aedes aegypti, whole mosquito (whole-body extract), oral, CYP modulator concentration (ng/mg mosquito), Treatment RTV + IVM (10 µg/ml RTV, 0.1 µg/ml IVM), Batch 3, 0 h post feeding, single mosquitoes 1-20) [ng/g] |
| --- | --- | --- | --- | --- | --- | --- | --- | --- | --- | --- | --- | --- | --- | --- | --- | --- | --- |
| CO[C@H]1/C=C/O[C@@]2(C)Oc3c(C)c(O)c4c(O)c(c(/C=N/N5CCN(C)CC5)c(O)c4c3C2=O)NC(=O)/C(C)=C\C=C\[C@H](C)[C@H](O)[C@@H](C)[C@@H](O)[C@@H](C)[C@H](OC(C)=O)[C@@H]1C [rifampicin] | 32.99 | 21.40 | 36.14 | 83 | 78 | 79 | 100 | 100 | almost not eliminated during the first 2 days | accumulated over days | ~36 | – | – | – | – | – | – |
| CC(=O)N1CCN(c2ccc(OCC3COC(Cn4ccnc4)(c4ccc(Cl)cc4Cl)O3)cc2)CC1 (stereo not shown) [ketoconazole] | 30.30 | 22.14 | 33.56 | 60 | 73 | 82 | – | – | only few samples could be quantified 36 h post-feeding | first order elimination | – | 639 | 0 | not altered | No effect | 75 | – |
| CCCCOCCOCCOCc1cc2c(cc1CCC)OCO2 [piperonyl butoxide] | 32.86 | 20.66 | 35.34 | 81 | 71 | 86 | – | – | – | – | – | – | – | – | – | – | – |
| CC(C)c1nc(CN(C)C(=O)N[C@H](C(=O)N[C@@H](Cc2ccccc2)C[C@H](O)[C@H](Cc2ccccc2)NC(=O)OCc2cncs2)C(C)C)cs1 [ritonavir] | 38.37 | 21.29 | 33.90 | 87 | 74 | 83 | – | – | – | – | – | – | – | – | – | – | 4230 |
